Measurements as given in patent US20240216332A1, “METHOD AND PHARMACEUTICAL COMPOSITION FOR TREATING MYOPIA” (GRAND PHARMA (CHINA) CO., LTD., priority 2021, published 2024).
Blank lines part the entries; values can stand above or below the compound they belong to.

What was measured:
[1] = system: form deprivation myopia guinea pigs; experiment: Sorbinil and Zopolrestat in form deprivation myopia model, Example 9; settings: FD, Sorbinil 100 μM, Zopolrestat 1 mM; for diopter or axial length parameter versus the vehicle group: each test time point (1-week, 2-week), FIG. 13; for corneal curvature, anterior chamber depth and lens thickness: FIG. 14
[2] = system: form deprivation myopia guinea pigs; experiment: m-Hydroxy methylaniline in form deprivation myopia model, Example 10; type: in vivo, guinea pig; settings: FD; for effect of preventing or treating myopia: subconjunctival injection 100 μl once daily for 1 week, atropine 0.1%
Experimental: The efficacy was evaluated using the guinea pig in form deprivation myopia model described in this application. All subjects were measured for diopter and axial length. […] Diopter and axis length parameters were measured at the beginning and after the end of the efficacy experiment.

[3] = system: form deprivation myopia guinea pigs; experiment: Direct eye drop administration in form deprivation myopia model, Example 7; settings: for inhibition rate on myopia: direct eye drop 25 μl twice per day, 0.5% bendazac lysine (self-made); for elongation of axial length compared with the normal saline group: eye drop twice per day for 2 weeks, statistical difference
From the text: All efficacy experiments above were repeated at least twice.

[4] = system: guinea pigs with lens induced myopia; experiment: Lens induced (LI, -4D lens) myopia model, peribulbar injection, Example 3; type: in vivo, guinea pig; settings: bendazac lysine 0.5 mg/day peribulbar injection
[5] = system: guinea pigs with form deprivation myopia; experiment: Form deprivation (FD) myopia model, peribulbar injection, Example 3; settings: for induced myopia (diopter) / myopia inhibition rate compared with normal saline group: peribulbar injection once daily (bendazac lysine 0.5 mg/day; atropine 0.1%, 100 μL)
[6] = system: form deprivation myopia guinea pigs; experiment: Lysine alone and bendazac alone in form deprivation myopia model, Example 8; type: in vivo, guinea pig; settings: FD; for progress of myopia (diopter becoming negative, vitreous chamber depth, axial length): subconjunctival injection 100 μl once daily for 2 weeks, equimolar (11.669 mM) preparations, FIG. 8; for ocular abnormalities / pupil, corneal curvature, anterior chamber depth and lens thickness: subconjunctival injection once daily for 2 weeks; for pupil, corneal curvature, anterior chamber depth and lens thickness: FIGS. 10 and 11; for myopia inhibition rate compared with DMSO vehicle control group: bendazac 3.3 mg/ml (11.669 mM) subconjunctival injection 100 μl once daily
[7] = system: lens induced myopia (LIM) guinea pigs; experiment: Choroidal thickness (OCT) in LIM model, Example 6; type: in vivo, guinea pig; settings: 0.5% bendazac lysine (BDL(S)) subconjunctival injection once daily for 1 week, 30-60 min after last administration
Experimental: (§1) The lenses were purchased from Wenzhou Focusee Technology Co. Ltd. The specific parameters were: center degree 4D, base curve 16 mm, and diameter 11.8 mm. The lenses were fixed in front of the right eye (experimental eye) of the guinea pig and the left eye (fellow eye) was left untreated. […] The choroidal thickness of all eyes in the two myopia models was detected by Spectralis HRA+OCT (Heidelberg Engineering, Heidelberg, Germany) at 30-60 min after the last administration. […] The statistical method was an independent sample T-test.

[8] = system: form deprivation myopia (FDM) guinea pigs; experiment: Choroidal thickness (OCT) in FDM model, Example 6; type: in vivo, guinea pig
Experimental: as §1

[9] = system: form deprivation myopia (FDM) guinea pigs; experiment: Dose-response of bendazac lysine (0.01%-0.5%) in form deprivation myopia model, Example 5
From the text: To be more intuitive, percentage are converted to milligram units when plotting.

[10] = m-hydroxy methylaniline 5 mM, FIG. 15
[11] = FD, 0.5% bendazac lysine, 0.1% atropine
[12] = LI (-4D lens), 1-week of administration

corneal curvature, anterior chamber depth and lens thickness [1]: no effect
Compound: O=C1NC(=O)[C@@]2(CCOc3ccc(F)cc32)N1 [Sorbinil]
diopter or axial length parameter versus the vehicle group [1]: no significant difference
therapeutic effect on myopia ([1]; subconjunctival injection 100 μl once daily for 2 weeks): no therapeutic effect on myopia

corneal curvature, anterior chamber depth and lens thickness [1]: no effect
Compound: O=C(O)Cc1nn(Cc2nc3cc(C(F)(F)F)ccc3s2)c(=O)c2ccccc12 [Zopolrestat]
diopter or axial length parameter versus the vehicle group [1]: no significant difference

Compound: CN1[C@@H]2CC[C@H]1C[C@@H](OC(=O)C(CO)c1ccccc1)C2 (some centres unmarked) [atropine]
anterior chamber depth and lens thickness ([2]; 0.1% atropine, FIG. 15): unaffected
pupil ([2]; 0.1% atropine, all animals tested in this group): pupil dilation
effect of preventing or treating myopia [2, 10]: normal effect for treating myopia
therapeutic effect (diopter or axial length parameter) ([3]; FD, 0.01% atropine eye drops, same administration conditions): No therapeutic effect was observed
inhibition rate on myopia ([3]; FD, 1-week, 0.1% atropine): 28.1%
inhibition rate on myopia ([3]; FD, 2-week, 0.1% atropine): 36.9%
elongation of axial length compared with the normal saline group [3, 11]: significantly inhibit elongation of axial length
ocular adverse reactions during the administration ([3]; FD, eye drop twice per day, 0.5% bendazac lysine, 0.1% atropine): pupil dilation adverse reactions
corneal curvature, anterior chamber and lens ([3]; FD, eye drop twice per day, 0.5% bendazac lysine, 0.1% atropine, FIG. 7): not affected

Compound: O=C(O)COc1nn(Cc2ccccc2)c2ccccc12 [bendazac lysine, L-lysine (1-benzyl-1H-indazol-3-yloxy) acetate]
induced myopia (diopter) [4, 12]: −3.49±1.15 D
myopia inhibition rate compared to the normal saline group [4, 12]: 21.0%
elongation of the vitreous chamber depth and the axial length ([4]; LI, 1 week): inhibited
corneal curvature (RCC), anterior chamber depth (ACD), lens thickness (LT) ([5]; FD and LI groups, 0.5 mg/day peribulbar injection, FIG. 2): not affected
induced myopia (diopter) ([5]; FD, 1-week of administration): −2.15±1.09 D
myopia inhibition rate compared with normal saline group ([5]; FD, 1-week of administration): 42.6%
induced myopia (diopter) ([5]; FD, 2-week of administration): −3.46 D
myopia inhibition rate compared with normal saline group ([5]; FD, 2-week of administration): 43.9%
increase in vitreous chamber depth and axial length ([5]; FD, bendazac lysine 0.5 mg/day peribulbar injection, FIG. 1): inhibited
progress of myopia (diopter becoming negative, vitreous chamber depth, axial length) [6]: effectively inhibited the progress of diopter becoming negative
ocular abnormalities [6]: no obvious ocular abnormalities
pupil, corneal curvature, anterior chamber depth and lens thickness [6]: not affected
inhibition rate on myopia ([3]; FD, 1-week, 0.1% atropine): 35.5%
inhibition rate on myopia ([3]; FD, 2-week, 0.1% atropine): 33.9%
elongation of axial length compared with the normal saline group [3, 11]: significantly inhibit elongation of axial length
corneal curvature, anterior chamber and lens ([3]; guinea pig, in vivo): not affected
ocular adverse reactions during the administration ([3]; guinea pig, in vivo): no obvious ocular abnormalities
mean difference in choroidal thickness between the experimental and the fellow eyes [7]: −6.31 μm
corneal curvature (RCC), anterior chamber depth (ACD), lens thickness (LT) ([8]; FDM and LIM, 0.5% BDL(S)): unaffected
mean difference in choroidal thickness between the experimental eye and the fellow eye ([8]; FDM, 0.5% bendazac lysine eye drops (BDL(S)) subconjunctival injection 100 μl once daily for 2 weeks, 30-60 min after last administration): −9.20 μm
effect in terms of the parameter diopter ([9]; FDM, 0.01% bendazac lysine, 2-week, no statistical difference): slightly stronger than the negative control group
progress of myopia, dose-response ([9]; FDM, 0.01%, 0.05%, 0.1%, 0.5% in normal saline, subconjunctival injection 100 μl once daily for 2 weeks): dose-dependently retarded the progress of myopia
therapeutic effect on myopia (progress of diopter becoming negative) ([9]; FDM, 0.05% and 0.1% bendazac lysine preparations): significant therapeutic effect on myopia
increase in vitreous chamber depth (VCD) and elongation of axial length (AL) ([9]; FDM, 0.05%, 0.1% and 0.5% bendazac lysine, FIG. 3): inhibit the increase in vitreous chamber depth (VCD) and the elongation of axial length (AL)
therapeutic effect on myopia in terms of diopter, compared with 0.1% atropine ([9]; FDM, 0.5% bendazac lysine, 1-week after administration, no statistical difference): better therapeutic effect on myopia than 0.1% atropine
anterior chamber depth, lens thickness and pupil ([9]; guinea pig, in vivo): not affected
ocular irritation and ocular abnormalities during administration ([9]; guinea pig, in vivo): No ocular irritation and any ocular abnormalities were observed

Compound: O=C(O)COc1nn(Cc2ccccc2)c2ccccc12 [bendazac, α-[(1-benzyl-1H-indazol-3-yl)oxy] acetic acid]
myopia inhibition rate compared with DMSO vehicle control group ([6]; 1-week): 33.4%
mean difference in the choroidal thickness between the experimental eyes and the fellow eyes ([6]; 2-week after administration of bendazac alone, FIG. 12): −8.47 μm
myopia inhibition rate compared with DMSO vehicle control group ([6]; 2-week): 30.1%
elongation of axial length and increase of vitreous chamber depth compared with the DMSO vehicle group ([6]; bendazac alone, statistical difference, FIG. 9): significantly inhibited elongation of axial length and reduced the increase of vitreous chamber depth

Compound: NCCCC[C@H](N)C(=O)O [lysine]
progress of myopia (diopter becoming negative, vitreous chamber depth, axial length) [6]: no inhibitory effect on the progress of myopia
ocular abnormalities [6]: no obvious ocular abnormalities
pupil, corneal curvature, anterior chamber depth and lens thickness [6]: not affected

Compound: m-hydroxy methylaniline
elongation of axial length and increase of vitreous chamber depth ([2]; 1 week, m-hydroxy methylaniline 5 mM): no inhibitory effect on elongation of axial length and no slowing effect on the increase of vitreous chamber depth
effect of preventing or treating myopia [2, 10]: no effect of preventing or treating myopia
